Active and inactive are the calls of the source. The rule behind the calls is not given here.
Key:
[1] = test system: CCRF-CEM; assay: Growth inhibition of human CCRF-CEM cells after 48 hrs by sulforhodamine B assay; format: functional
[2] = test system: ACHN; assay: Growth inhibition of human ACHN cells after 48 hrs by sulforhodamine B assay; format: functional
[3] = test system: A549; assay: Induction of apoptosis in human A549 cells assessed as viable cells at 2 uM after 48 hrs by annexin-V FITC/propidium iodide staining based FACS analysis; format: functional; details: A549, 48 h, read-out: Activity
[4] = test system: UACC-257; assay: Growth inhibition of human UACC257 cells after 48 hrs by sulforhodamine B assay; format: functional; details: UACC-257, 48 h
[5] = test system: SK-MEL-2; assay: Growth inhibition of human SK-MEL-2 cells after 48 hrs by sulforhodamine B assay; format: functional; details: SK-MEL-2, 48 h
[6] = test system: A549; assay: Cell cycle arrest in human A549 cells assessed as cell accumulation at G0/G1 phase at 2 uM after 48 hrs by propidium iodide staining based flow cytometry (reference value: 70.15%); format: functional
[7] = test system: A498; assay: Growth inhibition of human A498 cells after 48 hrs by sulforhodamine B assay; format: functional; details: A498, 48 h
[8] = test system: HT-29; assay: Growth inhibition of human HT-29 cells after 48 hrs by sulforhodamine B assay; format: functional; details: HT-29, 48 h
[9] = test system: 786-0; assay: Growth inhibition of human 786-0 cells after 48 hrs by sulforhodamine B assay; format: functional; details: 786-0, 48 h
[10] = test system: MOLT-4; assay: Growth inhibition of human MOLT4 cells after 48 hrs by sulforhodamine B assay; format: functional; details: MOLT-4, 48 h
[11] = test system: MDA-MB-435; assay: Growth inhibition of human MDA-MB-435 cells after 48 hrs by sulforhodamine B assay; format: functional; details: MDA-MB-435, 48 h
[12] = test system: COLO 205; assay: Growth inhibition of human COLO205 cells after 48 hrs by sulforhodamine B assay; format: functional; details: COLO 205, 48 h
[13] = test system: UACC-62; assay: Growth inhibition of human UACC62 cells after 48 hrs by sulforhodamine B assay; format: functional; details: UACC-62, 48 h
[14] = test system: HT-29; assay: Cytotoxicity against human HT-29 cells after 48 hrs by MTT assay; format: functional, cell-based; details: HT-29, 48 h, read-out: IC50
[15] = test system: A549; assay: Cell cycle arrest in human A549 cells assessed as cell accumulation at G2/M phase at 2 uM after 48 hrs by propidium iodide staining based flow cytometry (reference value: 23.75%); format: functional
[16] = test system: NCI/ADR-RES; assay: Growth inhibition of human NCI/ADR-RES cells after 48 hrs by sulforhodamine B assay; format: functional
[17] = test system: NCI-H460; assay: Growth inhibition of human NCI-H460 cells after 48 hrs by sulforhodamine B assay; format: functional; details: NCI-H460, 48 h
[18] = target: Tubulin (Homo sapiens) (UniProt P68371+Q9H4B7+P0DPH7+P68366+Q13509+Q71U36+P04350+Q3ZCM7+P07437+P68363+Q9BQE3+Q6PEY2+Q13885+Q9BVA1+Q9BUF5); assay: Inhibition of tubulin polymerization in human A549 cells assessed as disrupted microtubule organization at 2 uM after 48 hrs by immunohistochemistry analysis; format: cell-based
[19] = test system: A549; assay: Cell cycle arrest in human A549 cells assessed as cell accumulation at subG1 phase at 4 uM after 48 hrs by propidium iodide staining based flow cytometry (reference value: […]); format: functional
[20] = test system: OVCAR-5; assay: Growth inhibition of human OVCAR5 cells after 48 hrs by sulforhodamine B assay; format: functional; details: OVCAR-5, 48 h
[21] = test system: Hs-578T; assay: Growth inhibition of human Hs578T cells after 48 hrs by sulforhodamine B assay; format: functional
[22] = test system: PC-3; assay: Growth inhibition of human PC3 cells after 48 hrs by sulforhodamine B assay; format: functional; details: PC-3, 48 h
[23] = test system: SN12C; assay: Growth inhibition of human SN12C cells after 48 hrs by sulforhodamine B assay; format: functional
[24] = test system: A-375; assay: Cytotoxicity against human A375 cells after 48 hrs by MTT assay; format: functional, cell-based; details: A-375, 48 h
[25] = test system: HOP-92; assay: Growth inhibition of human HOP92 cells after 48 hrs by sulforhodamine B assay; format: functional; details: HOP-92, 48 h
[26] = test system: U-251; assay: Growth inhibition of human U251 cells after 48 hrs by sulforhodamine B assay; format: functional; details: U-251, 48 h
[27] = test system: K562; assay: Growth inhibition of human K562 cells after 48 hrs by sulforhodamine B assay; format: functional; details: K562, 48 h
[28] = test system: A549; assay: Induction of apoptosis in human A549 cells assessed as necrotic cells at 2 uM after 48 hrs by annexin-V FITC/propidium iodide staining based FACS analysis; format: functional
[29] = test system: SK-MEL-28; assay: Growth inhibition of human SK-MEL-28 cells after 48 hrs by sulforhodamine B assay; format: functional; details: SK-MEL-28, 48 h
[30] = test system: SNB-75; assay: Growth inhibition of human SNB75 cells after 48 hrs by sulforhodamine B assay; format: functional; details: SNB-75, 48 h
[31] = test system: OVCAR-4; assay: Growth inhibition of human OVCAR4 cells after 48 hrs by sulforhodamine B assay; format: functional; details: OVCAR-4, 48 h
[32] = test system: MDA-MB-468; assay: Growth inhibition of human MDA-MB-468 cells after 48 hrs by sulforhodamine B assay; format: functional; details: MDA-MB-468, 48 h
[33] = test system: SF-295; assay: Growth inhibition of human SF295 cells after 48 hrs by sulforhodamine B assay; format: functional; details: SF-295, 48 h
[34] = test system: NCI-H322M; assay: Growth inhibition of human NCI-H322M cells after 48 hrs by sulforhodamine B assay; format: functional
[35] = test system: BT-549; assay: Growth inhibition of human BT549 cells after 48 hrs by sulforhodamine B assay; format: functional; details: BT-549, 48 h
[36] = test system: SF-268; assay: Growth inhibition of human SF268 cells after 48 hrs by sulforhodamine B assay; format: functional; details: SF-268, 48 h
[37] = test system: DU-145; assay: Growth inhibition of human DU145 cells after 48 hrs by sulforhodamine B assay; format: functional; details: DU-145, 48 h
[38] = test system: A549; assay: Induction of apoptosis in human A549 cells assessed as late apoptotic cells at 2 uM after 48 hrs by annexin-V FITC/propidium iodide staining based FACS analysis; format: functional
[39] = test system: OVCAR-3; assay: Growth inhibition of human OVCAR3 cells after 48 hrs by sulforhodamine B assay; format: functional; details: OVCAR-3, 48 h
[40] = Inhibition of tubulin polymerization at 3 uM after 1 hr by fluorescence assay

Question: For COc1ccc(/C=C/C(=O)c2cc(OC)c(OC)c(OC)c2)cc1OCC(=O)Nc1nc2ccc(OC(F)(F)F)cc2s1, which GI50 [1] is on record?
Answer: Its GI50 is 2500 nM.

Question: What about the GI50 [2] of the same molecule?
Answer: Its GI50 is 1620 nM.

Question: What about the viability at 2 µM [3] of the same molecule?
Answer: The viability at 2 µM was 30.4%.

Question: What about the GI50 [4] of the same molecule?
Answer: Its GI50 is 8080 nM.

Question: What about the GI50 [5] of the same molecule?
Answer: Its GI50 is 4970 nM.

Question: And the Activity [6]?
Answer: Its Activity is 8.51%.

Question: And the GI50 [7]?
Answer: Its GI50 is 7400 nM.

Question: What about the GI50 [8] of the same molecule?
Answer: The GI50 was 3660 nM.

Question: And the GI50 [9]?
Answer: The GI50 was 2260 nM.

Question: What about the GI50 [10] of the same molecule?
Answer: The GI50 was 2890 nM.

Question: And the GI50 [11]?
Answer: Its GI50 is 300 nM.

Question: And the GI50 [12]?
Answer: The GI50 was 6370 nM.

Question: What about the GI50 [13] of the same molecule?
Answer: Its GI50 is 9520 nM.

Question: And the IC50 [14]?
Answer: The IC50 was 1100 nM.

Question: And the Activity [15]?
Answer: Its Activity is 80.73%.

Question: And the GI50 [16]?
Answer: The GI50 was 490 nM.

Question: What about the GI50 [17] of the same molecule?
Answer: The GI50 was 2430 nM.

Question: And the inhibition [18]?
Answer: The inhibition was “Active”.

Question: And the Activity [19]?
Answer: Its Activity is 3.21%.

Question: What about the GI50 [20] of the same molecule?
Answer: The GI50 was 4760 nM.

Question: And the GI50 [21]?
Answer: The GI50 was 3080 nM.

Question: And the GI50 [22]?
Answer: The GI50 was 3140 nM.

Question: And the GI50 [23]?
Answer: Its GI50 is 1740 nM.

Question: What about the IC50 [24] of the same molecule?
Answer: Its IC50 is 2400 nM.

Question: What about the GI50 [25] of the same molecule?
Answer: The GI50 was 2140 nM.

Question: What about the GI50 [26] of the same molecule?
Answer: The GI50 was 700 nM.

Question: And the GI50 [27]?
Answer: The GI50 was 430 nM.

Question: What about the Activity [28] of the same molecule?
Answer: The Activity was 6.2%.

Question: And the GI50 [29]?
Answer: Its GI50 is 3310 nM.

Question: And the GI50 [30]?
Answer: The GI50 was 340 nM.

Question: And the GI50 [31]?
Answer: The GI50 was 2070 nM.

Question: What about the GI50 [32] of the same molecule?
Answer: Its GI50 is 3520 nM.

Question: What about the GI50 [33] of the same molecule?
Answer: The GI50 was 2210 nM.

Question: And the GI50 [34]?
Answer: Its GI50 is 2770 nM.

Question: And the GI50 [35]?
Answer: Its GI50 is 2710 nM.

Question: And the GI50 [36]?
Answer: Its GI50 is 1200 nM.

Question: And the GI50 [37]?
Answer: Its GI50 is 1560 nM.

Question: And the Activity [38]?
Answer: Its Activity is 74.9%.

Question: And the GI50 [39]?
Answer: The GI50 was 1520 nM.

Question: And the inhibition [40]?
Answer: Its inhibition is 63.1%.

From ChEMBL document CHEMBL2034833, “Synthesis of chalcone-amidobenzothiazole conjugates as antimitotic and apoptotic inducing agents” (Bioorg Med Chem, 2012)
